Experimental data: patent publication US20110262562A1, “AQUEOUS SALINE SOLUTIONS FOR THE DESTRUCTION OF FATTY TISSUE” (LIPOLYANE, priority 2008, published 2011)

Tests used:
[1] = system: adipocytes prepared from murine adipous tissues; test: LDH released into the culture medium by murine adipocytes; assay type: cell-based; conditions: TDC 500 μM in 150 mOsm/L, compared with 150 mOsm/L alone (FIG. 7)
Protocol: Adipocytes were prepared from murine adipous tissues in the following way. Adipous tissues were sampled under aseptic conditions on anesthetized animals, and then finally cut and subjected to a dissociating enzymatic treatment with collagenase type II at 37° C. The incubation mixture was then centrifuged in order to remove the tissue debris. The adipocytes were purified by filtration under sterile conditions on a 160 μm nylon filter. After mild centrifugation, the adipocytes were washed from a phosphate buffer solution with pH 7.4 and, after counting, taken up again into a cell culture medium adapted from the type of Dubelco Modified Eagle's Medium or DMEM, and finally placed in sterile culture flasks and incubator at 37° C. adapted to the experiments. […]
Cell lysis was appreciated by the change in the number of adipocytes on the one hand and by the dosage of an intracellular enzyme released into the culture medium, lactico-dehydrogenase (abbreviated hereafter as LDH) on the other hand, expressed as a percentage with respect to the conditions for which cell lysis is complete (obtained in the presence of distilled water) and by comparison with the conditions of cell cultures.

[2] = system: line of human adipocytes (SW872); test: LDH activity released on lysis of human adipocytes in culture; assay type: cell-based
Protocol: To do this, adipocytes were incubated for durations comprised between 0 and 2 hours, in aqueous saline solutions according to the invention, and for which the concentrations of poloxamers and of biliary acid […]
The efficiency of adipocyte lysis was appreciated by the measurement of the activity of a cytosolic enzyme lactico dehydrogenase (LDH), released in the culture medium and expressed as a percentage of the total lysis.
The cells were derived from a line of human adipocytes (SW872) stemming from a liposarcoma deposited at the American Cell Bank of the National Institute of Health (NIH).
The adipocytes were cultivated in the following medium: DMEM (Dubelco's modified Eagle medium) with a high glucose content (4.5 g/L) which contained pyruvate, antibiotics (penicillin/streptomycin), a supplement of amino acids and 25% of Ham-F12 medium.
It should be noted that the experiments were then conducted in the presence of 1% fetal calf serum in order to minimize basal LDH activity likely to be present in the serum.
The salts of biliary acids and/or the poloxamers were put into solution in the aforementioned culture medium under sterile conditions. Suitable diluted aqueous saline solutions were made from parent solutions at 2% for poloxamers and 3 mM for the biliary acid salt.
The adipocytes were cultivated under sterile conditions (plastic dishes, incubator with 5% CO2, 37° C.) in suitable specific media and used for less than 10 passages oso as to conduct experiments on primary cells, i.e. close to the original adipous tissues. Cell counts were carried out in Mallassez cells and the viability was appreciated by exclusion of the blue dye Trypan.
After re-suspending them under the action of trypsin, the adipocytes were incubated in sterile 96-well plates. For experiments requiring significant amounts of cells, the preliminary incubations were conducted in sterile 24-well plates, and then transferred into 96-well plates (round bottom) for centrifugation, in order to efficiently separate entire cells from lyzed cells having released their enzymatic content then again found in the supernatant. An aliquot (100 μL) of the latter was then transferred into another 96-well plate adapted to dosages (flat bottom). After addition of the mixture of corresponding reagents (kit BioChain #K6330400), LDH activity was then measured (after incubation for 40 minutes with intermittent orbital stirring) in a computerized plate reader (MR5000/Biolinx, Dynatech) at the wavelength of 490 nm corrected from absorbance at 630 nm. The results are expressed as a percentage of the total lysis carried out in the presence of detergent (1% Triton X100).

C[C@H](CCC(=O)NCCS(=O)(=O)[O-])[C@H]1CC[C@H]2[C@@H]3CC[C@@H]4C[C@H](O)CC[C@]4(C)[C@H]3C[C@H](O)[C@]12C.[Na+] [TDC, sodium tauro-deoxycholate]
activity of LDH in the medium [1]: much more increased

sodium deoxycholate [DC]
lytic activity (LDH activity) ([2]; 300 mOsm/L, 750 μM of DC, after one hour (FIG. 15 B)): 38±5%
maximum lysis (LDH activity) ([2]; 300 mOsm/L, DC 0 to 750 μM, incubation of one hour): 42±7%
LDH activity ([2]; 300 mOsm/L, DC 750 μM, after 30 minutes of incubation): 26%
LDH activity ([2]; 300 mOsm/L, DC 750 μM, after 2 hours of incubation): 37%
LDH activity ([2]; DC 750 μM added to hypo-osmolar (160 mOsm/L) aqueous saline solution, after one hour (FIG. 15 D or F)): ~72±8%
